Measured values taken from patent US9850245B2 (Merck Sharp & Dohme Corp., priority 2014, dated 2017).

Columns and labels:
Kir1.1 (ROMK1) = Kir1.1 (ROMK1) (Homo sapiens (Human), UniProt P48048); assay: Electrophysiology Assay (whole cell voltage clamp, IonWorks Quattro); format: cell-based; conditions: Chinese hamster ovary cells stably expressing Kir1.1; fractional block at voltage step to 0 mV; 6 min compound incubation
Method: Blocking of Kir1.1 (ROMK1) currents was examined by whole cell voltage clamp (Hamill et. al. Pfluegers Archives 391:85-100 (1981)) using the IonWorks Quattro automated electrophysiology platform (Molecular Devices, Sunnyvale, Calif.). Chinese hamster ovary cells stably expressing Kir1.1 channels were maintained in T-75 flasks in cell culture media in a humidified 10% CO2 incubator at 37° C. Prior to an experiment, Kir1.1 expression was induced by overnight incubation with 1 mM sodium butyrate. On the day of the experiment, cells were dissociated with 2.5 mL of Versene (Invitrogen 15040-066), a non-enzymatic cell dissociation reagent, for approximately 6 min at 37° C. and suspended in 10 mL of bath solution containing (in mM): 150 NaCl, 10 KCl, 2.7 CaCl2, 0.5 MgCl2, and 5 HEPES, at pH 7.4. After centrifugation, the cell pellet was resuspended in approximately 4.0 mL of bath solution and placed in the IonWorks instrument. The intracellular solution consisted of (in mM): 80 K gluconate, 40 KCl, 20 KF, 3.2 MgCl2, 3 EGTA, and 5 Hepes, at pH 7.4. Electrical access to the cytoplasm was achieved by perforation in 0.13 mg/mL amphotericin B for 4 min. Amphotericin B (Sigma A-4888) was prepared as a 40 mg/mL solution in DMSO.
Voltage protocols and current recordings were performed using the IonWorks HT software/hardware system. Currents were sampled at 1 kHz. There was no correction for liquid junction potentials. The test pulse, consisting of a 100 ms (millisecond) step to 0 mV (millivolts) from a holding potential of −70 mV, followed by a 100 ms voltage ramp from −70 mV to +70 mV, was applied before and after a 6 min compound incubation period. Test compounds were prepared by diluting DMSO stock solutions into the bath solution at 3× the final concentration and placed in the instrument in 96-well polypropylene plates. Current amplitudes were measured using the IonWorks software. To assess compound potency, the fractional block during the voltage step to 0 mV was calculated in Microsoft Excel (Microsoft, Redmond, Calif.), and dose-response curves were fitted with Igor Pro 4.0 (WaveMetrics, Lake Oswego, Oreg.).

ROMK = ROMK (Homo sapiens (Human), UniProt P48048); assay: Thallium Flux Assay; format: cell-based
Chain of ROMK (P48048 whole entry): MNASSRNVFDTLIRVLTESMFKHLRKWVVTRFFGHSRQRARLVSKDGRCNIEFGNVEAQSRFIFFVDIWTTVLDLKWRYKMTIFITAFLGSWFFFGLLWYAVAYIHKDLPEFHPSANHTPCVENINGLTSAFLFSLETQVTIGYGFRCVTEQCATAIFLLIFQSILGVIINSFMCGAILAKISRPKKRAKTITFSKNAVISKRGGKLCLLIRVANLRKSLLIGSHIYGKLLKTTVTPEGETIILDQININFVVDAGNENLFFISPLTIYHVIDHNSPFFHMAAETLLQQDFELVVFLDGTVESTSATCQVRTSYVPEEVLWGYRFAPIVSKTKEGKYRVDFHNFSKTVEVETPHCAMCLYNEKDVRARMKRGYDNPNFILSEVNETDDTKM
Method: A Thallium Flux Assay was performed on the compounds of the Examples. This assay has been described previously; see, e.g., PCT Published Application WO 2013/062900.

Chain of Kir1.1 (ROMK1) (P48048 whole entry): as above

| Compound | IC50 (Kir1.1 (ROMK1)) | IC50 (ROMK) |
| --- | --- | --- |
| CC1=C(N2CCNC3(CCN(CC(O)c4ccc(-n5cnnn5)nc4C)CC3)C2=O)COC1=O (single isomer, unassigned) [Example 2A, 9-(2-hydroxy-2-(2-methyl-6-(1H-tetrazol-1-yl)pyridin-3-yl)ethyl)-4-(4-methyl-5-oxo-2,5-dihydrofuran-3-yl)-1,4,9-triazaspiro[5.5]undecan-5-one] | 26 nM | 36.5 nM |
| CC1=C(N2CCOC3(CCN(CC(O)c4cnc(-n5cnnn5)cn4)CC3)C2=O)COC1=O (single isomer, unassigned) [Example 18A, 9-(2-(5-(1H-tetrazol-1-yl)pyrazin-2-yl)-2-hydroxyethyl)-4-(4-methyl-5-oxo-2,5-dihydrofuran-3-yl)-1-oxa-4,9-diazaspiro[5.5]undecan-5-one] | 12 nM | 69.6 nM |
| Cc1nc(-n2cnnn2)ccc1C(O)CN1CCC2(CC1)CN(C1=CC(=O)OC1)CCO2 (single isomer, unassigned) [Example 20A, 4-(9-(2-hydroxy-2-(2-methyl-6-(1H-tetrazol-1-yl)pyridin-3-yl)ethyl)-1-oxa-4,9-diazaspiro[5.5]undecan-4-yl)furan-2(5H)-one] | 37 nM | 61.5 nM |
| Cc1nc(-n2cnnn2)ccc1C(O)CN1CCC2(CC1)CN(C1=CC(=O)OC1)CCO2 (single isomer, unassigned) [Example 20B, 4-(9-(2-hydroxy-2-(2-methyl-6-(1H-tetrazol-1-yl)pyridin-3-yl)ethyl)-1-oxa-4,9-diazaspiro[5.5]undecan-4-yl)furan-2(5H)-one] | 71 nM | 225 nM |
| CC1=C(N2CCOC3(CCN(CC(O)c4ccc(-n5cnnn5)nc4C)CC3)C2)COC1=O (single isomer, unassigned) [Example 22A, 4-(9-(2-hydroxy-2-(2-methyl-6-(1H-tetrazol-1-yl)pyridin-3-yl)ethyl)-1-oxa-4,9-diazaspiro[5.5]undecan-4-yl)-3-methylfuran-2(5H)-one] | 11 nM | 34 nM |
| CC1=C(N2CCOC3(CCN(CC(O)c4ccc(-n5cnnn5)nc4C)CC3)C2)COC1=O (single isomer, unassigned) [Example 22B, 4-(9-(2-hydroxy-2-(2-methyl-6-(1H-tetrazol-1-yl)pyridin-3-yl)ethyl)-1-oxa-4,9-diazaspiro[5.5]undecan-4-yl)-3-methylfuran-2(5H)-one] | 29 nM | 117 nM |
| CC1=C(N2CCOC3(CCN(CC(O)c4cnc(-n5cnnn5)nc4)CC3)C2=O)COC1=O (single isomer, unassigned) [Example 46A, 9-(2-(2-(1H-tetrazol-1-yl)pyrimidin-5-yl)-2-hydroxyethyl)-4-(4-methyl-5-oxo-2,5-dihydrofuran-3-yl)-1-oxa-4,9-diazaspiro[5.5]undecan-5-one] | 51 nM | 56 nM |
| CC1=C(N2CCNC3(CCN(C[C@H](O)c4ccc(-n5cnnn5)nc4)CC3)C2=O)COC1=O [Example 4A, (R)-9-(2-(6-(1H-tetrazol-1-yl)pyridin-3-yl)-2-hydroxyethyl)-4-(4-methyl-5-oxo-2,5-dihydrofuran-3-yl)-1,4,9-triazaspiro[5.5]undecan-5-one] | 46 nM | 38.2 nM |
| CC1=C(N2CCOC3(CCN(C[C@H](O)c4ccc(-n5cnnn5)nc4)CC3)C2=O)COC1=O [Example 6A, (R)-9-(2-(6-(1H-tetrazol-1-yl)pyridin-3-yl)-2-hydroxyethyl)-4-(4-methyl-5-oxo-2,5-dihydrofuran-3-yl)-1-oxa-4,9-diazaspiro[5.5]undecan-5-one] | 6.6 nM | 14.6 nM |
| CC1=C(N2CCOC3(CCN(C[C@@H](O)c4ccc(-n5cnnn5)nc4)CC3)C2=O)COC1=O [Example 6B, (S)-9-(2-(6-(1H-tetrazol-1-yl)pyridin-3-yl)-2-hydroxyethyl)-4-(4-methyl-5-oxo-2,5-dihydrofuran-3-yl)-1-oxa-4,9-diazaspiro[5.5]undecan-5-one] | 3.8 nM | 12.1 nM |
| CC1=C(N2CCOC3(CCN(C[C@H](O)c4ccc5c(c4C)COC5=O)CC3)C2=O)COC1=O [Example 8A, (R)-9-(2-hydroxy-2-(4-methyl-1-oxo-1,3-dihydroisobenzofuran-5-yl)ethyl)-4-(4-methyl-5-oxo-2,5-dihydrofuran-3-yl)-1-oxa-4,9-diazaspiro[5.5]undecan-5-one] | 6.4 nM | 13.3 nM |
| Cc1c([C@@H](O)CN2CCC3(CC2)CN(C2=CC(=O)OC2)C(=O)O3)ccc2c1COC2=O [Example 16, (R)-8-(2-hydroxy-2-(4-methyl-1-oxo-1,3-dihydroisobenzofuran-5-yl)ethyl)-3-(5-oxo-2,5-dihydrofuran-3-yl)-1-oxa-3,8-diazaspiro[4.5]decan-2-one] | 320 nM | 315 nM |
| O=C1C=C(N2CCOC3(CCN(C[C@H](O)c4ccc(-n5cnnn5)nc4)CC3)C2)CO1 [Example 19A, (R)-4-(9-(2-(6-(1H-tetrazol-1-yl)pyridin-3-yl)-2-hydroxyethyl)-1-oxa-4,9-diazaspiro[5.5]undecan-4-yl)furan-2(5H)-one] | 56 nM | 80.6 nM |
| O=C1C=C(N2CCOC3(CCN(C[C@@H](O)c4ccc(-n5cnnn5)nc4)CC3)C2)CO1 [Example 19B, (S)-4-(9-(2-(6-(1H-tetrazol-1-yl)pyridin-3-yl)-2-hydroxyethyl)-1-oxa-4,9-diazaspiro[5.5]undecan-4-yl)furan-2(5H)-one] | 100 nM | 263 nM |
| CC1=C(N2CCOC3(CCN(C[C@H](O)c4ccc5c(c4C)COC5=O)CC3)C2)COC1=O [Example 21, (R)-5-(1-hydroxy-2-(4-(4-methyl-5-oxo-2,5-dihydrofuran-3-yl)-1-oxa-4,9-diazaspiro[5.5]undecan-9-yl)ethyl)-4-methylisobenzofuran-1(3H)-one] | 77 nM | 171 nM |
| CC1=C(N2CCN(C)C3(CCN(C[C@H](O)c4ccc5c(c4C)COC5=O)CC3)C2=O)COC1=O [Example 34, (R)-9-(2-hydroxy-2-(4-methyl-1-oxo-1,3-dihydroisobenzofuran-5-yl)ethyl)-1-methyl-4-(4-methyl-5-oxo-2,5-dihydrofuran-3-yl)-1,4,9-triazaspiro[5.5]undecan-5-one] | 27 nM | 42.3 nM |
| Cc1c([C@@H](O)CN2C3CCC2CC2(C3)OCCN(C3=CC(=O)OC3)C2=O)ccc2c1COC2=O (stereo partly drawn) [Example 36, (1R,2′R,5S)-8-((R)-2-hydroxy-2-(4-methyl-1-oxo-1,3-dihydroisobenzofuran-5-yl)ethyl)-4′-(5-oxo-2,5-dihydrofuran-3-yl)-8-azaspiro[bicyclo[3.2.1]octane-3,2′-morpholin]-3′-one] | 13.4 nM | 29.3 nM |
| CC1=C(N2CCOC3(CCN(C[C@H](F)c4ccc(-n5cnnn5)nc4)CC3)C2=O)COC1=O [Example 55, (R)-9-(2-(6-(1H-tetrazol-1-yl)pyridin-3-yl)-2-fluoroethyl)-4-(4-methyl-5-oxo-2,5-dihydrofuran-3-yl)-1-oxa-4,9-diazaspiro[5.5]undecan-5-one] | – | 59 nM |
| CC1=C(N2CCOC3(CCN(C[C@@H](F)c4ccc(-n5cnnn5)nc4)CC3)C2=O)COC1=O [Example 56, (S)-9-(2-(6-(1H-tetrazol-1-yl)pyridin-3-yl)-2-fluoroethyl)-4-(4-methyl-5-oxo-2,5-dihydrofuran-3-yl)-1-oxa-4,9-diazaspiro[5.5]undecan-5-one] | – | 49 nM |
| CC1=C(N2CCOC3(CCN(C[C@H](F)c4ccc5c(c4C)COC5=O)CC3)C2=O)COC1=O [Example 57, (R)-9-(2-fluoro-2-(4-methyl-1-oxo-1,3-dihydroisobenzofuran-5-yl)ethyl)-4-(4-methyl-5-oxo-2,5-dihydrofuran-3-yl)-1-oxa-4,9-diazaspiro[5.5]undecan-5-one] | – | 218 nM |
| CC1=C(N2CCOC3(CCN(C[C@@H](F)c4ccc5c(c4C)COC5=O)CC3)C2=O)COC1=O [Example 58, (S)-9-(2-fluoro-2-(4-methyl-1-oxo-1,3-dihydroisobenzofuran-5-yl)ethyl)-4-(4-methyl-5-oxo-2,5-dihydrofuran-3-yl)-1-oxa-4,9-diazaspiro[5.5]undecan-5-one] | – | 306 nM |
| CC1=C(N2CC3(CCN(C[C@H](O)c4ccc5c(c4C)COC5=O)CC3)OCC2=O)COC1=O [Example 59, (R)-9-(2-hydroxy-2-(4-methyl-1-oxo-1,3-dihydroisobenzofuran-5-yl)ethyl)-4-(4-methyl-5-oxo-2,5-dihydrofuran-3-yl)-1-oxa-4,9-diazaspiro[5.5]undecan-3-one] | – | 697 nM |
